Test results reported in the supplement of paper PMC13380429.

Experiments:
Settings in all cases: 72 h
U2OS [1] = assay: relative viability EC50 (midpoint between 100% and the lowest measured viability); higher = less toxic
Calu-3 [2] = assay: as above
HepG2 [3] = assay: as above
Caco-2 [4] = assay: as above
Vero E6 [5] = assay: as above
U2OS [6] = assay: cell viability relative to DMSO; higher = less toxic
Calu-3 [7] = assay: as above
HepG2 [8] = assay: as above
Caco-2 [9] = assay: as above
Vero E6 [10] = assay: as above
U2OS [11] = assay: drug sensitivity score (DSS) for viability; higher = more toxic; extreme values may be limits of the assay
Calu-3 [12] = assay: as above
HepG2 [13] = assay: as above
Caco-2 [14] = assay: as above
Vero E6 [15] = assay: as above

Compound | relative viability EC50 (U2OS [1]) [µM] | relative viability EC50 (Calu-3 [2]) [µM] | relative viability EC50 (HepG2 [3]) [µM] | relative viability EC50 (Caco-2 [4]) [µM] | relative viability EC50 (Vero E6 [5]) [µM] | cell viability (U2OS [6]; 1 nM) [%] | cell viability (U2OS [6]; 10 nM) [%] | cell viability (U2OS [6]; 100 nM) [%] | cell viability (U2OS [6]; 1000 nM) [%] | cell viability (U2OS [6]; 10000 nM) [%] | cell viability (Calu-3 [7]; 1 nM) [%] | cell viability (Calu-3 [7]; 10 nM) [%] | cell viability (Calu-3 [7]; 100 nM) [%] | cell viability (Calu-3 [7]; 1000 nM) [%] | cell viability (Calu-3 [7]; 10000 nM) [%] | cell viability (HepG2 [8]; 1 nM) [%] | cell viability (HepG2 [8]; 10 nM) [%] | cell viability (HepG2 [8]; 100 nM) [%] | cell viability (HepG2 [8]; 1000 nM) [%] | cell viability (HepG2 [8]; 10000 nM) [%] | cell viability (Caco-2 [9]; 1 nM) [%] | cell viability (Caco-2 [9]; 10 nM) [%] | cell viability (Caco-2 [9]; 100 nM) [%] | cell viability (Caco-2 [9]; 1000 nM) [%] | cell viability (Caco-2 [9]; 10000 nM) [%] | cell viability (Vero E6 [10]; 1 nM) [%] | cell viability (Vero E6 [10]; 10 nM) [%] | cell viability (Vero E6 [10]; 100 nM) [%] | cell viability (Vero E6 [10]; 1000 nM) [%] | cell viability (Vero E6 [10]; 10000 nM) [%] | drug sensitivity score (U2OS [11]) | drug sensitivity score (Calu-3 [12]) | drug sensitivity score (HepG2 [13]) | drug sensitivity score (Caco-2 [14]) | drug sensitivity score (Vero E6 [15])
COc1cc(CN2CCN(c3ccc(F)cc3)CC2)cc(OC)c1OC [V-51] | > 10 | > 10 | > 10 | > 10 | > 10 | 100 | 103 | 94.8 | 98.6 | 102 | 81.8 | 95.7 | 106 | 105 | 105 | 100 | 98.1 | 93.2 | 100 | 98.8 | 94.8 | 94.4 | 93.6 | 83.5 | 97.8 | 95.9 | 96.5 | 100 | 98.3 | 106 | 0 | 0 | 0 | 0 | 0
CO[C@H]1CC[C@H](N(c2cc(C3=CCCCC3)sc2C(=O)O)C(=O)[C@H]2CC[C@H](C)CC2)CC1 [VCH-916] | > 10 | > 10 | > 10 | > 10 | > 10 | 96.2 | 98.7 | 98.6 | 98.6 | 101 | 90.8 | 110 | 107 | 97.5 | 104 | 103 | 92.8 | 110 | 110 | 114 | 92.2 | 93.4 | 105 | 95.5 | 105 | 96.9 | 95.7 | 98.8 | 103 | 110 | 0 | 0 | 0 | 0 | 0
CCC(=O)NO [ZAMI-633] | > 10 | > 10 | > 10 | > 10 | > 10 | 97.5 | 97.9 | 92.8 | 93.3 | 105 | 101 | 102 | 94.2 | 93.6 | 97.2 | 110 | 97 | 104 | 90.6 | 85.1 | 100 | 96.7 | 93.4 | 96.8 | 127 | 110 | 95 | 109 | 97.1 | 89 | 0 | 0 | 0.9 | 0 | 0.1
O=C(C[S+]([O-])C(c1ccccc1)c1ccccc1)NO (stereo not given) [adrafinil] | > 10 | > 10 | > 10 | > 10 | > 10 | 97.9 | 102 | 97.9 | 107 | 99.8 | 103 | 110 | 98.4 | 107 | 108 | 97.6 | 88.7 | 97.2 | 96.1 | 102 | 93.8 | 91.1 | 91.6 | 103 | 101 | 93.5 | 85.5 | 93.8 | 93 | 107 | 0 | 0 | 0 | 0 | 0
CC[C@H]1[C@@H]2C[C@H]3[C@@H]4N(C)c5ccccc5[C@]45C[C@@H]([C@@H]2[C@H]5O)N3[C@@H]1O [ajmaline] | > 10 | > 10 | > 10 | > 10 | > 10 | 96 | 101 | 95.7 | 102 | 97.5 | 101 | 108 | 91.9 | 104 | 108 | 92 | 90 | 95 | 105 | 94.7 | 101 | 94 | 94.9 | 90.6 | 88 | 96.1 | 95 | 105 | 99.5 | 88.9 | 0 | 0 | 0 | 0.1 | 0
CNC(=O)c1ccc(N2C(=S)N(c3cnc(C#N)c(C(F)(F)F)c3)C(=O)C23CCC3)cc1F [apalutamide] | > 10 | > 10 | > 10 | > 10 | > 10 | 98 | 98.6 | 96.7 | 97.7 | 96.9 | 106 | 103 | 103 | 102 | 97.1 | 99.5 | 107 | 112 | 109 | 104 | 104 | 107 | 94.1 | 90.6 | 93.5 | 104 | 107 | 99.3 | 105 | 98.8 | 0 | 0 | 0 | 0 | 0
C#CCOC(=O)C1=CCCN(C)C1 [arecaidine-propargyl-ester] | > 10 | > 10 | > 10 | > 10 | > 10 | 98 | 93.2 | 99.3 | 102 | 101 | 100 | 103 | 95.2 | 100 | 95.6 | 95.1 | 95.5 | 101 | 102 | 102 | 91.4 | 98.4 | 94.4 | 98 | 103 | 97.4 | 99 | 95 | 98.4 | 107 | 0 | 0 | 0 | 0 | 0
NC(=O)[C@@H](CCC(F)(F)F)N(Cc1ccc(-c2ncon2)cc1F)S(=O)(=O)c1ccc(Cl)cc1 [avagacestat] | > 10 | > 10 | > 10 | > 10 | > 10 | 99.1 | 94.9 | 102 | 93.1 | 96.5 | 96.2 | 105 | 106 | 95.2 | 105 | 96.6 | 102 | 94.9 | 105 | 87.9 | 103 | 99.9 | 95.9 | 93.2 | 77.1 | 107 | 110 | 106 | 109 | 99.2 | 0 | 0 | 0 | 1.4 | 0
O=C(c1cc2ccccc2o1)N1CCN(Cc2ccccc2)CC1 [befuraline] | > 10 | > 10 | > 10 | > 10 | > 10 | 95.8 | 97.6 | 95.1 | 98 | 94.6 | 94.1 | 97.8 | 100 | 93.8 | 90.7 | 102 | 97 | 101 | 94.1 | 102 | 85 | 91 | 88.8 | 99.2 | 84.4 | 113 | 97.2 | 106 | 103 | 96.7 | 0 | 0 | 0 | 0 | 0
O=S(=O)(N[C@H](CO)C(C(F)(F)F)C(F)(F)F)c1ccc(Cl)s1 [begacestat] | > 10 | > 10 | > 10 | > 10 | > 10 | 100 | 94.2 | 102 | 89.7 | 93.6 | 99.4 | 102 | 108 | 104 | 96.7 | 99.1 | 106 | 88 | 96.5 | 96.6 | 118 | 102 | 99.8 | 96.1 | 109 | 99.6 | 101 | 105 | 95.7 | 84.6 | 0 | 0 | 0 | 0 | 0.7
CCOC(=O)[C@H](CCc1ccccc1)N[C@H]1CCc2ccccc2N(CC(=O)O)C1=O [benazepril] | > 10 | > 10 | > 10 | > 10 | > 10 | 99.1 | 94 | 102 | 93.8 | 93.4 | 94.9 | 97.5 | 111 | 97.8 | 108 | 112 | 101 | 95.4 | 104 | 96.9 | 99.1 | 90.8 | 106 | 101 | 94.6 | 103 | 104 | 96.1 | 109 | 99.2 | 0 | 0 | 0 | 0 | 0
CC(O)CC(=O)O (stereo not drawn) [beta-hydroxybutyrate] | > 10 | > 10 | > 10 | > 10 | > 10 | 94.6 | 95.1 | 99.3 | 97.8 | 101 | 99.2 | 106 | 100 | 96.9 | 94.5 | 90.5 | 96.2 | 101 | 99.7 | 99 | 114 | 99.4 | 122 | 104 | 103 | 97.6 | 95.3 | 93.3 | 97.1 | 114 | 0 | 0 | 0 | 0 | 0
CCN(CC)c1ccc(C(=C2C=CC(=[N+](CC)CC)C=C2)c2ccccc2)cc1 [brilliant-green] | 0.0933 | 0.235 | 0.128 | 0.148 | 0.328 | 93.6 | 95.5 | 47.8 | 0.8 | -0.2 | 94.6 | 101 | 72.4 | 16.2 | 0 | 109 | 97.7 | 58.8 | 5.2 | -0.3 | 92.4 | 92.5 | 69.4 | 0.4 | -0.3 | 96.5 | 97.8 | 94.2 | 6.8 | -0.2 | 24.1 | 18.7 | 22.3 | 21.9 | 17.7
O=[N+]([O-])C(Br)(CO)CO [bronopol] | > 10 | > 10 | > 10 | > 10 | > 10 | 95.5 | 102 | 95.7 | 101 | 102 | 110 | 98.6 | 91.6 | 103 | 105 | 112 | 108 | 107 | 93.3 | 108 | 95.2 | 95.2 | 96.5 | 98.7 | 113 | 105 | 84.2 | 106 | 90.6 | 99 | 0 | 0 | 0 | 0 | 0
